Measurements: US20220380375A1, “SUBSTITUTED AROMATIC FUSED RING DERIVATIVE AND COMPOSITION COMPRISING SAME, AND USE THEREOF” (Shenzhen TargetRx, Inc., priority 2019, published 2022)
pIC50: −log10 of the molar value.

Legend:
Type in all cases: cell-based
[1] = system: Ba/F3 parental generation cells; experiment: Cytotoxicity assay (CellTiter-Glo), Ba/F3 parental; conditions: Mus musculus, BaF3, Table 2, 72 hrs
Procedure: (§1) Inhibitory effects of example compounds on the activity of Ba/F3 parental generation, Ba/F3 KIF5B-RET, Ba/F3 KIF5B-RET^V804M, Ba/F3 KIF5B-RET^V804L, Ba/F3 KIF5B-RET^G810R, Ba/F3 FLT3-ITD, Ba/F3 FLT3-ITD^D835Y, Ba/F3 FLT3-ITD^F691L cells were determined.
(§2) Materials and reagents: fetal bovine serum FBS (GIBCO, Cat #10099141), CellTiter-Glo® Luminescent Cell Viability Assay kit (Promega, Cat #G7572), 96-well black-wall clear flat-bottom plate (Corning®, Cat #3603).
(§3) 1. Cells in the logarithmic growth phase were harvested and counted with a […]. Cell viability was detected by a trypan blue exclusion method, ensuring that cell viability was 90% or more; 2. Cell concentration was adjusted to about 3000 cells/well; 90 μl of cell suspension was added to each well of the 96-well plate; 3. The cells in the 96-well plate were incubated overnight under the condition of 37° C., 5% CO2, and 95% humidity.
(§4) 1. A series of compound solutions were formulated by 3.16-fold serial dilution starting from a concentration of 10 μM, resulting in 9 concentrations. 10 μL of the compound solutions were added in each well of the 96-well plate seeded with cells in triplicate for each compound concentration; 2. The cells in the 96-well plate added with compounds were further incubated under the condition of 37° C., 5% CO2, and 95% humidity for 72 hrs, and then CTG analysis was carried out.
(§5) 1. CTG reagent was thawed, and the cell plate was equilibrated at room temperature for 30 minutes; 2. An equal volume […] of CTG solution was added to each well; 3. The cell plate was shaken on an orbital shaker for 5 minutes to lyse the cells; 4. The cell plate was placed at RT for 20 minutes to stabilize the luminescence signal; 5. Luminescence value was read.
(§6) Data were Analyzed by GraphPad Prism 5.0 Software, and Fitted by Nonlinear S-Curve Regression to obtain a dose-response curve, from which IC50 values were calculated.
(§7) Cell survival rate (%)=(luminescence value of drug to be tested−luminescence value of culture medium control)/(luminescence value of cell control−luminescence value of culture medium control)×100%.

Ba/F3 KIF5B-RET cells [2] = biological target: T1, Ba/F3 KIF5B-RET cells (Homo sapiens, UniProt P07949); experiment: Cytotoxicity assay (CellTiter-Glo), Ba/F3 KIF5B-RET; conditions: CellTiter-Glo, 72 hrs; read-out: Ba/F3 KIF5B-RET IC50
T1 construct: Ba/F3 KIF5B-RET IC50 (nM); other: CellTiter-Glo, 72 hrs; fused on or other part: P33176 (Kinesin-1 heavy chain)
Procedure: as §1, §2, §3, §4, §5, §6, §7

Ba/F3 KIF5B-RET cells [3] = experiment: as above; conditions: ratio of Ba/F3 parental IC50 to Ba/F3 KIF5B-RET IC50
Procedure: as §1, §2, §3, §4, §5, §6, §7

[4] = biological target: T2, Ba/F3 FLT3-ITD^F691L cells (Homo sapiens, UniProt P36888, F691L, cells depend on it, form not given); experiment: Cytotoxicity assay (CellTiter-Glo), Ba/F3 FLT3-ITD F691L; conditions: CellTiter-Glo, 72 hrs; read-out: Ba/F3 FLT3-ITD^F691L IC50
T2 construct: Ba/F3 FLT3-ITD^F691L IC50 (nM); other: CellTiter-Glo, 72 hrs
T2 sequence (P36888 1-993 F691L): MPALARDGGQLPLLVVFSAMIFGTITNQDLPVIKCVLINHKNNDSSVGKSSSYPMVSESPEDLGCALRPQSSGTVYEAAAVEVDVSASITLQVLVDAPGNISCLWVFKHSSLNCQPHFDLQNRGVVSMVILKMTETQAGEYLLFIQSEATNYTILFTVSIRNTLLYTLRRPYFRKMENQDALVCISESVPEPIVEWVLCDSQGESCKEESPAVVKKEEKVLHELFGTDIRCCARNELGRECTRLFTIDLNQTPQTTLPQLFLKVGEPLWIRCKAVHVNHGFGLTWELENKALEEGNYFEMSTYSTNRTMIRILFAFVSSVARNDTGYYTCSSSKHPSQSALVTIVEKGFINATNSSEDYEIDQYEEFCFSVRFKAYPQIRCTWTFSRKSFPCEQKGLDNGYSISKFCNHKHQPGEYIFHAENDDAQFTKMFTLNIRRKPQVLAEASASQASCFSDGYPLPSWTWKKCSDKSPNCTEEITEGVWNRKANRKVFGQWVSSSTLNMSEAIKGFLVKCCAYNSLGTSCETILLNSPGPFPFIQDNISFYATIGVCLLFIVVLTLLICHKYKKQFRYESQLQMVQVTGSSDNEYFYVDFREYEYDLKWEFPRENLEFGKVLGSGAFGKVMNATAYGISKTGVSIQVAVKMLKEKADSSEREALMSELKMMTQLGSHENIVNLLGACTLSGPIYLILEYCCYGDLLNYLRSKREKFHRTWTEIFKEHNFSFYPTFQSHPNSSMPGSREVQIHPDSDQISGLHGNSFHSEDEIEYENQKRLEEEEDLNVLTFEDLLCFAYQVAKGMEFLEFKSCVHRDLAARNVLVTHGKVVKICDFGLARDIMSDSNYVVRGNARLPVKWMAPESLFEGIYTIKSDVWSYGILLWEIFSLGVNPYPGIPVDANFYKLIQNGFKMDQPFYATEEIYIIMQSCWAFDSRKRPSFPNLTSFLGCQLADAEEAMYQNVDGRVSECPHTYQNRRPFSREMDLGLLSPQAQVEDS
Procedure: as §1, §2, §3, §4, §5, §6, §7

[5] = system: Ba/F3 FLT3-ITD^F691L cells; experiment: as above; conditions: ratio of Ba/F3 parental IC50 to Ba/F3 FLT3-ITD^F691L IC50
Procedure: as §1, §2, §3, §4, §5, §6, §7

T1 sequence (P07949 whole entry, change not shown, the tested form may be a part): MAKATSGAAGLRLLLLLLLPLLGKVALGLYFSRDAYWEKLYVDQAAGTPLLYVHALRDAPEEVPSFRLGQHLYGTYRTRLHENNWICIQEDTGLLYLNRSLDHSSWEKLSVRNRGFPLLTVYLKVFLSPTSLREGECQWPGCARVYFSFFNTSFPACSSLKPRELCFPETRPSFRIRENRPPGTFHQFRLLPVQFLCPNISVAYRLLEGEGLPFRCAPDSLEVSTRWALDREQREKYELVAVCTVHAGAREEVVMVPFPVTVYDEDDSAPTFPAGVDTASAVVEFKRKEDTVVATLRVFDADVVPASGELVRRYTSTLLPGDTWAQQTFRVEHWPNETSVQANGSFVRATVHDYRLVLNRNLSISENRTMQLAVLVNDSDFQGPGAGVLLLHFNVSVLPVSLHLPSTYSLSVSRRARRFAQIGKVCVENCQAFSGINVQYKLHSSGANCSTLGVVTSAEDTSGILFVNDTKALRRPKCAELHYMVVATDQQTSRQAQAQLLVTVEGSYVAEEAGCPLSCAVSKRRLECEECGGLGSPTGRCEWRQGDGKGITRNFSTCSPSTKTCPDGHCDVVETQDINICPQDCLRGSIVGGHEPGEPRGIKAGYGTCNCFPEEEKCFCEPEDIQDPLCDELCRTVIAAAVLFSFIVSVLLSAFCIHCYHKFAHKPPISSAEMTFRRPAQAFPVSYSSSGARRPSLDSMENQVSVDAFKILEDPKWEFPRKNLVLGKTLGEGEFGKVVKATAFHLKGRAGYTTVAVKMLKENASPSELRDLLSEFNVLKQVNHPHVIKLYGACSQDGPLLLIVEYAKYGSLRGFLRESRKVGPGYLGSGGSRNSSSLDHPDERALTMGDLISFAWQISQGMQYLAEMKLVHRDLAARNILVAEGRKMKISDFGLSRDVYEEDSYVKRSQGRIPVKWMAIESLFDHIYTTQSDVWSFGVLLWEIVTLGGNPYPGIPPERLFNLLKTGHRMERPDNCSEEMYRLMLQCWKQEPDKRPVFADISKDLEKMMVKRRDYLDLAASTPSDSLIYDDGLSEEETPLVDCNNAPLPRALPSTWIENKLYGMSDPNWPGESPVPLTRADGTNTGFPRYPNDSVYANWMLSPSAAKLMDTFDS

SMILES	pIC50 [1]	GI50 (Ba/F3 KIF5B-RET cells [2]) [nM]	Ba/F3 KIF5B-RET Selectivity on parental generation (Ba/F3 KIF5B-RET cells [3])	GI50 [4] [nM]	Ba/F3 FLT3-ITD^F691L Selectivity on parental generation [5]
CC(C)n1nc(-c2ccc(NC(=O)Nc3cc(C(F)(F)F)ccc3F)cc2)c2c(N)ncnc21 [AD80, reference compound]	6.09	2.19	370.7	11.8	68.8
CC(C)n1nc(-c2ccc(CC(=O)Nc3cc(C(C)(C)C(F)(F)F)on3)cc2)c2c(N)ncnc21 [Compound T-1, 2-(4-(4-amino-1-isopropyl-1H-pyrazolo[3,4-d]pyrimidin-3-yl)phenyl)-N-(5-(1,1,1-trifluoro-2-methylprop-2-yl)isoxazol-3-yl)acetamide]	5.79	0.15	10802.6	7.7	210.4
CC(C)n1nc(-c2ccc(NC(=O)Nc3cc(C(C)(C)C(F)(F)F)on3)cc2)c2c(N)ncnc21 [Compound T-2, 1-(4-(4-amino-1-isopropyl-1H-pyrazolo[3,4-d]pyrimidin-3-yl)phenyl)-3-(5-(1,1,1-trifluoro-2-methylprop-2-yl)isoxazol-3-yl)urea]	6.47	0.16	2111.4	2.93	115.3
CC(C)n1cc(-c2ccc(CC(=O)Nc3cc(C(C)(C)C(F)(F)F)on3)cc2)c2c(N)ncnc21 [Compound T-3, 2-(4-(4-amino-7-isopropyl-7H-pyrrolo[2,3-d]pyrimidin-5-yl)phenyl)-N-(5-(1,1,1-trifluoro-2-methylprop-2-yl)isoxazol-3-yl)acetamide]	6.14	0.58	1249.0	0.97	746.8
CC(C)c1nc(-c2ccc(CC(=O)Nc3cc(C(C)(C)C(F)(F)F)on3)cc2)c2c(N)nccn12 [Compound T-4, 2-(4-(8-amino-3-isopropylimidazo[1,5-a]pyrazin-1-yl)phenyl)-N-(5-(1,1,1-trifluoro-2-methylprop-2-yl)isoxazol-3-yl)acetamide]	6.15	1.56	449.4	16.6	42.2
CC(C)c1cc(-c2ccc(CC(=O)Nc3cc(C(C)(C)C(F)(F)F)on3)cc2)c2c(N)ncnn12 [Compound T-5, 2-(4-(4-amino-7-isopropylpyrrolo[2,1-f][1,2,4]triazin-5-yl)phenyl)-N-(5-(1,1,1-trifluoro-2-methylprop-2-yl)isoxazol-3-yl)acetamide]	5.32	2.88	1660.8	11.4	419.6
CC(C)n1nc(-c2ccc(CC(=O)Nc3cc(C(C)(C)C(F)(F)F)on3)c(F)c2)c2c(N)ncnc21 [Compound T-6, 2-(4-(4-amino-1-isopropyl-1H-pyrazolo[3,4-d]pyrimidin-3-yl)-2-fluorophenyl)-N-(5-(1,1,1-trifluoro-2-methylprop-2-yl)isoxazol-3-yl)acetamide]	5.68	0.31	6759.6	6.26	334.7
CC(C)n1nc(-c2ccc(CC(=O)Nc3cc(C(C)(C)C(F)(F)F)on3)cn2)c2c(N)ncnc21 [Compound T-7, 2-(6-(4-amino-1-isopropyl-1H-pyrazolo[3,4-d]pyrimidin-3-yl)pyridin-3-yl)-N-(5-(1,1,1-trifluoro-2-methylprop-2-yl)isoxazol-3-yl)acetamide]	6.48	4.61	71.2	3.22	101.9
CC(C)n1nc(-c2ccc(CC(=O)Nc3cc(C(C)(C)C(F)(F)F)no3)cc2)c2c(N)ncnc21 [Compound T-8, 2-(4-(4-amino-1-isopropyl-1H-pyrazolo[3,4-d]pyrimidin-3-yl)phenyl)-N-(3-(1,1,1-trifluoro-2-methylprop-2-yl)isoxazol-5-yl)acetamide]	5.43	1.03	3569.9	6.28	585.5
CC(C)n1nc(-c2ccc(CC(=O)Nc3cc(C(C)(C)C(F)(F)F)no3)cn2)c2c(N)ncnc21 [Compound T-9, 2-(6-(4-amino-1-isopropyl-1H-pyrazolo[3,4-d]pyrimidin-3-yl)pyridin-3-yl)-N-(3-(1,1,1-trifluoro-2-methylprop-2-yl)isoxazol-5-yl)acetamide]	5.39	10.9	377.8	28.1	146.5
CC(C)c1nc(-c2ccc(CC(=O)Nc3cc(C(C)(C)C(F)(F)F)on3)cc2)c2c(N)ncnn12 [Compound T-10, 2-(4-(4-amino-7-isopropylimidazo[5,1-f][1,2,4]triazin-5-yl)phenyl)-N-(5-(1,1,1-trifluoro-2-methylprop-2-yl)isoxazol-3-yl)acetamide]	5.65	3.68	609.2	39.1	57.3
[2H]C([2H])([2H])C(n1nc(-c2ccc(CC(=O)Nc3cc(C(C)(C)C(F)(F)F)no3)cc2)c2c(N)ncnc21)C([2H])([2H])[2H] [Compound T-11, 2-(4-(4-amino-1-(propan-2-yl-1,1,1,3,3,3-d6)-1H-pyrazolo[3,4-d]pyrimidin-3-yl)phenyl)-N-(3-(1,1,1-trifluoro-2-methylpropan-2-yl)isoxazol-5-yl)acetamide]	5.26	1.3	4236.2	13.6	404.9
[2H]C([2H])([2H])C(n1cc(-c2ccc(CC(=O)Nc3cc(C(C)(C)C(F)(F)F)on3)cc2)c2c(N)ncnc21)C([2H])([2H])[2H] [Compound T-12, 2-(4-(4-amino-7-(propen-2-yl-1,1,1,3,3,d6)-7H-pyrrolo[2,3-d]pyrimidin-5-yl)phenyl)-N-(5-(1,1,1-trifluo-2-methylpropan-2-yl)isoxazol-3-yl)acetamide]	5.97	2.24	478.6	3.7	289.7
